Measurements reported in the NIST ThermoML archive (doi:10.1021/je9004036).
Values joined by “and” are separate entries in the source; they are usually repeats but may differ in a detail not shown here. Equal values may be shown once.

Experiments:
[1] = Molar enthalpy of transition or fusion; conditions: Crystal 1; DSC
[2] = for vapor or sublimation pressure: Liquid, Calculated from knudsen effusion weight loss; for Normal melting temperature: Crystal, DTA

COc1ccc(C(=O)O)cc1N [3-amino-4-methoxybenzoic acid]
Conditions	Molar enthalpy of transition or fusion [kcal/mol]	Normal melting temperature [°C]
[1]	6.06	–
[2]	–	204.72

[2]
Conditions	vapor or sublimation pressure
379.67 K	0.00014 kPa and 0.000138 kPa and 0.000135 kPa
381.72 K	0.000174 kPa and 0.000169 kPa and 0.000164 kPa
383.68 K	0.000215 kPa and 0.000205 kPa and 0.000199 kPa
385.16 K	0.000247 kPa and 0.000252 kPa
387.19 K	0.000306 kPa and 0.000298 kPa and 0.00029 kPa
389.18 K	0.000382 kPa and 0.000363 kPa and 0.000353 kPa
391.17 K	0.000455 kPa
393.21 K	0.000568 kPa and 0.000557 kPa and 0.000536 kPa
395.18 K	0.000698 kPa and 0.000676 kPa
397.2 K	0.000832 kPa and 0.000811 kPa and 0.000786 kPa
399.18 K	0.001028 kPa and 0.000967 kPa and 0.000941 kPa

COc1cc(N)cc(C(=O)O)c1 [3-amino-5-methoxybenzoic acid]
Conditions	Molar enthalpy of transition or fusion [kcal/mol]	Normal melting temperature [°C]
[1]	5.35	–
[2]	–	183.79

[2]
Conditions	vapor or sublimation pressure
380.16 K	0.000125 kPa and 0.000123 kPa
381.19 K	0.000138 kPa and 0.000135 kPa and 0.000131 kPa
383.18 K	0.000174 kPa and 0.000164 kPa and 0.000156 kPa
385.16 K	0.000201 kPa and 0.000217 kPa and 0.000208 kPa
387.2 K	0.000269 kPa and 0.000253 kPa and 0.000242 kPa
389.16 K	0.000325 kPa and 0.000316 kPa and 0.000301 kPa
393.19 K	0.000511 kPa and 0.00049 kPa and 0.000473 kPa
395.18 K	0.000631 kPa and 0.000591 kPa and 0.00057 kPa
397.18 K	0.000773 kPa
399.19 K	0.000917 kPa and 0.000887 kPa and 0.000862 kPa
400.18 K	0.001003 kPa and 0.00094 kPa and 0.000926 kPa

COc1cccc(C(=O)O)c1N [2-amino-3-methoxybenzoic acid]
Conditions	Molar enthalpy of transition or fusion [kcal/mol]	Normal melting temperature [°C]
[1]	5.79	–
[2]	–	169.86

[2]
Conditions	vapor or sublimation pressure
349.12 K	0.000123 kPa and 0.000121 kPa
351.18 K	0.000152 kPa and 0.00015 kPa and 0.000149 kPa
353.19 K	0.000194 kPa and 0.000186 kPa and 0.000183 kPa
355.13 K	0.000235 kPa and 0.000232 kPa and 0.000234 kPa
357.18 K	0.000297 kPa and 0.000285 kPa and 0.000283 kPa
359.12 K	0.000362 kPa and 0.000356 kPa and 0.000355 kPa
360.13 K	0.000407 kPa and 0.000404 kPa and 0.0004 kPa
361.16 K	0.000446 kPa and 0.000437 kPa and 0.000431 kPa
363.18 K	0.000552 kPa and 0.000537 kPa and 0.000527 kPa
367.18 K	0.000847 kPa and 0.000823 kPa and 0.000808 kPa
369.18 K	0.001031 kPa and 0.001004 kPa and 0.000983 kPa

COc1cc(C(=O)O)ccc1N [4-amino-3-methoxybenzoic acid]
Conditions	Molar enthalpy of transition or fusion [kcal/mol]	Normal melting temperature [°C]
[1]	6.04	–
[2]	–	189.20

[2]
Conditions	vapor or sublimation pressure
373.14 K	0.000103 kPa and 0.000102 kPa
375.15 K	0.00013 kPa and 0.000127 kPa and 0.000126 kPa
377.18 K	0.000163 kPa and 0.000156 kPa and 0.000153 kPa
379.17 K	0.000192 kPa and 0.000186 kPa and 0.000196 kPa
381.17 K	0.00025 kPa and 0.00024 kPa and 0.000232 kPa
383.18 K	0.000301 kPa
385.16 K	0.000384 kPa and 0.000376 kPa and 0.000374 kPa
387.17 K	0.000476 kPa and 0.000455 kPa and 0.000444 kPa
389.16 K	0.000587 kPa and 0.000573 kPa and 0.00057 kPa
391.17 K	0.000724 kPa and 0.000696 kPa and 0.000678 kPa
393.17 K	0.000864 kPa and 0.000841 kPa and 0.000826 kPa
395.17 K	0.001037 kPa and 0.001005 kPa and 0.000971 kPa

COc1ccc(N)c(C(=O)O)c1 [2-amino-5-methoxybenzoic acid]
Conditions	Molar enthalpy of transition or fusion [kcal/mol]	Normal melting temperature [°C]
[1]	5.47	–
[2]	–	151.81

[2]
Conditions	vapor or sublimation pressure
353.13 K	0.0001 kPa and 0.000101 kPa
355.15 K	0.000131 kPa and 0.000128 kPa and 0.00013 kPa
357.2 K	0.000159 kPa and 0.000158 kPa
359.18 K	0.000202 kPa and 0.000196 kPa and 0.000195 kPa
361.15 K	0.000251 kPa and 0.000249 kPa and 0.000252 kPa
363.2 K	0.000316 kPa and 0.000304 kPa and 0.000306 kPa
365.18 K	0.000384 kPa and 0.000376 kPa
367.16 K	0.000479 kPa and 0.000458 kPa and 0.000447 kPa
369.18 K	0.000577 kPa and 0.000562 kPa and 0.000553 kPa
371.14 K	0.000723 kPa and 0.000704 kPa and 0.000716 kPa
373.17 K	0.000898 kPa and 0.000864 kPa and 0.000856 kPa
375.17 K	0.001076 kPa and 0.001049 kPa and 0.001039 kPa
